The values that follow come from patent US20240293432A1, “Use of Cannabidiol to Improve Rehabilitation in Lung Cancer” (priority 2023, published 2024).

Series [1] relates to LLC flank tumor-bearing mice. In words: Open field test and elevated plus maze in mice with subcutaneous LLC flank tumors after chemotherapy. It is filed as in vivo, C57BL/6 mice. On the procedure: FIGS. 4A-4C depict that the behavior of mice is altered by tumor growth and by chemotherapy indicating increased pain and anxiety. C57BL/6 mice were inoculated with 5×105 LLC1 on right flank on Day 0. Cisplatin or Osimertinib were administered in doses of 10 mg/kg by intraperitoneal injection on the days indicated. DMSO+sterile saline was used as a vehicle control. Behavior was assayed using the open field test and EPM according to the timeline depicted in FIG. 4A. The open field (FIG. 4B) and EPM (FIG. 4C) tests were recorded using AnyMaze software to track animal speed, movement, and location. Significant differences between means were determined by ANOVA with Holm Sidack post hoc test p<0.05.
Alterations in behavior in tumor-bearing mice following chemotherapy treatment: To make a preliminary assessment of cancer and chemotherapy-derived symptoms (anxiety, reduced mobility, and pain) in mice, a study was conducted which used the syngeneic Lewis Lung Carcinoma (LLC) model of subcutaneous flank tumors. C57BL/6 mice were injected with 5×10^5 LLC cells on the right flank. Tumor-bearing mice were treated with Cisplatin, Osimertinib, or vehicle, as outlined in FIGS. 5A-5C. The study performed the open field test (a sensory motor test used to measure general activity level) and the elevated plus maze (EPM) (test for anxiety behavior) on tumor-bearing mice throughout the period of tumor growth and treatment (FIG. 4A). In these tests, reduced physical activity was used an indicator of increased pain, and decreases in both distances traveled and time spent mobile over the tumor growth period were observed. […] Overall, the mice spent very little time in the open arms regardless of time point or treatment group making the measure unreliable. […] One limitation of this model is the contribution of tumor location on the hind flank to decreased mobility. To overcome this limitation, future studies can use genetically engineered models of tumor growth in the lungs.

Series [2] relates to H1975 lung cancer cell line. In words: CellTiter Glo viability assay, drugs alone or combined with CBD. It is filed as cell-based. How it is done: Viability after treatment with each cancer drug was compared with and without CBD (*=p<0.05 Student's t test).
Effects of CBD combination with Standard of Care drugs in lung cancer cells: A study was conducted which screened cannabinoids, including CBD, for their ability to synergize with FDA-approved anti-cancer drugs to reduce the viability of cancer cells in vitro. […] IC50 was calculated using GraphPad Prism (dose-response inhibition), and Combination Index (CI) was calculated using CompuSyn software. […] Because the major driver mutation in this cell line is known (KRAS), the study evaluated potential drug synergy between CBD and the G12D specific KRAS inhibitor MTRX1133.
(ATP-based viability assays read luminescence as a measure of living cells.)

The test system of series [3] is LLC lung cancer cell line. In words: cells. It is filed as cell-based, mouse.
Series [4] deals with lung tumor-bearing mice (luciferase expressing LLC cells). In words: Open field test, elevated plus maze and tumor growth in mice with orthotopic LLC lung tumors. The class given is in vivo, C57BL/6 mice. On the procedure: FIGS. 5A-5C depict the effects of CBD on behavior in lung tumor bearing mice. […] D-Luciferin (150 mg/kg) was delivered by IP injection 10 minutes prior to imaging. Vehicle or CBD (25 mg/kg) was delivered by oral gavage every alternate day and Open Field (FIG. 5B) and EPM (FIG. 5C) tests were performed. Significant differences between means were determined by ANOVA with Holm Sidack post hoc test.
Effects of CBD on the behavior of lung tumor-bearing mice: To make a preliminary assessment of the effects of CBD on the behavior of lung tumor-bearing mice, a study was conducted which used the open field test and EPM to determine if behavioral deficiencies observed in FIGS. 4A-4C could be rescued. Lung tumors were initiated in C57BL/6 mice via intratracheal instillation of 5×10^5 luciferase expressing LLC cells (Perkin Elmer) and tumor growth was monitored using the Perkin Elmer In Vivo Imaging System (IVIS). Treatment groups were assigned on day 9 (FIG. 5A) to ensure each group (n=4) contained tumors of approximately the same size based on luminescence readings. CBD (25 mg/kg) or vehicle (2:1:18 parts ethanol:Tween-80:PBS) treatments by oral gavage were started on day 10 and repeated every alternate day, two hours prior to the beginning of behavioral testing. […] This is consistent with previous studies of CBD treatment in naïve mice. […] (FIG. 5B).
This may indicate less interest in the corner zone and, therefore, less anxiety. […] The effects of CBD treatment in lung cancer can be investigated using additional tests to measure pain (cold plate, Von Frey, conflict avoidance) and endurance (treadmill) to discover how CBD dose and combination with cancer therapies can improve these outcomes.

Setting [5] is: LLC flank tumor mice, 10 mg/kg intraperitoneal.
[6] abbreviates: 25 mg/kg oral gavage every alternate day.

Like-named read-outs stand apart in the source and are kept apart here.

As for `N.N.[Cl][Pt][Cl]` [Cisplatin], in series [1] (setting [5]), the “Anxiety compared to vehicle” value is given as “increased anxiety”, the “Mobility compared to vehicle” value is on record as “greater reduction in mobility” and the “Time spent in the open center zone (EPM) compared to vehicle” value was “significantly decreased”. In series [2] (H1975, 48 hr, combinations with 10 μM CBD, read-out: IC50 (μM), cell viability reduction), the concentration for half-maximal inhibition (IC50) turned out to be 28 µM. The IC50 in series [3] (48 hr, combinations with 10 μM CBD, read-out: IC50 (μM), cell viability reduction) turned out to be 3.1 µM.
For the compound `C=C(C)[C@@H]1CCC(C)=C[C@H]1c1c(O)cc(CCCCC)cc1O` [CBD, Cannabidiol], in series [4] (setting [6]), the “Number of entries into the corner zone (open field)” value is “trending decrease”, the “Time mobile in the EPM” value was “significant increases”, the “Time spent in the center zone (open field)” value is on record as “significant increases” and the “Time the animal's head was within the open center zone (EPM)” value is listed as “significant increases”. In addition, the “Distance travelled in the open field test” value in series [4] (25 mg/kg oral gavage every alternate day, initially) is “no significant change”. Besides, the “Time mobile in the open field” value in series [4] (25 mg/kg oral gavage every alternate day, later as tumor growth progressed) is “significant increases”. In series [4] (CBD alone, 25 mg/kg oral gavage, IVIS luminescence), the Tumor growth entry is “significant reduction in tumor growth using CBD alone was not observed”. Moreover, the concentration for half-maximal inhibition (IC50) in series [2] (Homo sapiens, NCI-H1975, 48 h, read-out: IC50 (μM), cell viability reduction) is 19.5 µM. Moreover, in series [2] (Homo sapiens, NCI-H1975, read-out: IC50 of CBD alone (FIG. 2 legend)), the half-maximal inhibitory concentration (IC50) came to 21 µM. For the same compound, in series [3] (Mus musculus, 48 hr, combinations with 10 μM CBD, read-out: IC50 (μM), cell viability reduction), the IC50 was found to be 19 µM. The IC50 in series [3] (Mus musculus, n=3, read-out: IC50 of CBD alone (FIG. 2 legend)) was found to be 14.5 µM.
Consider `C=CC(=O)Nc1cc(Nc2nccc(-c3cn(C)c4ccccc34)n2)c(OC)cc1N(C)CCN(C)C` [Osimertinib], for which the “Time spent in the open center zone (EPM) compared to vehicle” value in series [1] (setting [5]) was “significantly decreased”. Further, the “Anxiety compared to vehicle” value in series [1] (mouse, in vivo, ip, 10 mg/kg) is “increased anxiety”. Besides, the concentration for half-maximal inhibition (IC50) in series [2] (Homo sapiens, NCI-H1975, H1975, 48 hr, combinations with 10 μM CBD, read-out: IC50 (μM), cell viability reduction) is 3.7 µM.

A word on the IC50: it is the concentration that inhibits the measured activity by half.
